Data on 27 compounds can be found in patent publication US6979686B1, “Substituted pyrazoles as p38 kinase inhibitors” (Pharmacia Corporation, priority 2001, dated 2005).

Where a name gives a salt, the structure may show the parent alone. Read-outs that look alike come from different tables or passages of the source.

A word on the melting point: it is the temperature, or range, at which the solid turns liquid.

Data set [1] has as its system human TNF, human whole blood stimulated with LPS. Put plainly: TNF inhibition: human whole blood assay. It counts as cell-based. Particulars: for TNF Inhibition-Human Whole Blood Assay: Table 9, percentage, concentration not given. As for the experimental part:
TNF Inhibition: Human Whole Blood Assay
Human peripheral blood is obtained in heparinized tubes. A 190 μL aliquot of blood is placed in each well of a 96 well u-bottom plate. […] After one hour of incubation at 37° C., […] of lipopolysaccharide (Salmonella typhosa, Sigma) in phosphate buffered saline is added resulting in a final concentration of […]. After four to five hours of incubation at 37° C., the supernatants are harvested and assayed at 1:10 or 1:20 dilutions for human TNF using ELISA.
In vitro human whole blood assay data for measuring the ability of the compounds to inhibit TNF production in human whole blood stimulated with LPS are shown in the column identified as: • “Human Whole Blood IC50, μM or %Inhib@conc. (μM)”
(§1) In vitro p38 alpha kinase inhibitory data are shown in the column identified as “p38 alpha IC50 (μM)”. In vitro human whole blood assay data for measuring the ability of the compounds to inhibit TNF production in human whole blood stimulated with LPS are shown in the column identified as: “HWB IC50 (μM)”. In vivo assessment of the ability of the compounds to inhibit LPS-stimulated TNF-release in the rat is shown in the column identified as: “ratLPS/%Inh@dose(mg/kg)”, wherein the dose is in milligram per kilogram (mg/kg) administered by oral gavage, 4 hours before LPS challenge.

Data set [2] deals with TNF-a, human peripheral blood mononuclear cells. In words: LPS stimulation of human PBMs, TNF-a by ELISA. It counts as cell-based. The note with it: Table 5, LPS-stimulated human PBM cells, TNF cell assay. As for the experimental part:
Method of Isolation of Human Peripheral Blood Mononuclear Cells:
Human whole blood was collected in Vacutainer tubes containing EDTA as an anticoagulant. A blood sample (7 ml) was carefully layered over 5 ml PMN Cell Isolation Medium (Robbins Scientific) in a 15 ml round bottom centrifuge tube. The sample was centrifuged at 450-500×g for 30-35 minutes in a swing out rotor at room temperature. After centrifugation, the top band of cells were removed and washed 3 times with PBS w/o calcium or magnesium. The cells were centrifuged at 400×g for 10 minutes at room temperature. The cells were resuspended in Macrophage Serum Free Medium (Gibco BRL) at a concentration of 2 million cells/ml.
LPS Stimulation of Human PBMs:
Compounds were dissolved in DMSO initially and diluted in TCM for a final concentration of 0.1% DMSO. LPS (Calbiochem, 20 ng/ml, final concentration) was then added at a volume of 0.010 ml. Cultures were incubated overnight at 37° C. Supernatants were then removed and tested by ELISA for TNF-a and IL1-b. Viability was analyzed using MTS. After 0.1 ml supernatant was collected, 0.020 ml MTS was added to remaining 0.1 ml cells.
For orientation: In an ELISA, binding on a coated surface is turned into a signal by an enzyme label.

Data set [3] concerns TNF-α, U937 human histiocytic lymphoma cell line. In words: LPS stimulation of TNF production by U937 cells. The data set is classed as cell-based. Particulars: Homo sapiens, U-937, TNF production, human U937 cells stimulated with LPS; read-out: U937 Cell IC50. The procedure, abridged: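 U937 cells differentiated 24 h with 20 ng/ml PMA, rested 24-48 h, used at 2 million cells/ml. Compounds in 0.1% DMSO final; LPS (E. coli, 100 ng/ml final) stimulation for 4 h at 37° C. Released TNF-α measured by ELISA; IC50 (μM).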

Data set [4] deals with TNF-α, rats challenged with LPS. Put plainly: Rat assay, LPS-stimulated TNF release. Particulars: for inhibition in vivo at 3 mg/kg / Rat LPS Model % inhib @ dose @ predose time: 3 mpk oral gavage, −4 h before LPS challenge; for inhibition in vivo at 3 mg/kg: read-out: Rat LPS Model % inhib @ dose @ predose time. The data set is classed as in vivo. The method, then: The efficacy of the novel compounds in blocking the production of TNF also was evaluated using a model based on rats challenged with LPS. Male Harlen Lewis rats [Sprague Dawley Co.] were used in this model. Each rat weighed approximately 300 g and was fasted overnight prior to testing. Compound administration was typically by oral gavage (although intraperitoneal, subcutaneous and intravenous administration were also used in a few instances) 1 to 24 hours prior to the LPS challenge. Rats were administered 30 μg/kg LPS [salmonella typhosa, Sigma Co.] intravenously via the tail vein. Blood was collected via heart puncture 1 hour after the LPS challenge. Serum samples were stored at −20° C. until quantitative analysis of TNF-α by Enzyme Linked-Immuno-Sorbent Assay (“ELISA”) [Biosource]. Additional details of the assay are set forth in Perretti, M., et al., Br. J. Pharmacol. (1993), 110, 868-874, which is incorporated by reference in this application.
In vivo assessment of the ability of the compounds to inhibit LPS-stimulated TNF release in the rat is shown in the column identified as: • “Rat LPS Model, % TNF inhib dose @ predose time” wherein in the dose is milligram per kilogram (mpk) administered by oral gavage and the predose time indicates the number of hours before LPS challenge when the compound is administered.
In vivo assessment of the ability of the compounds to inhibit LPS-stimulated TNF release in the rat is shown in the column identified as: • “Rat LPS Model % Inhibition@dose@predose time” wherein the dose is milligram per kilogram (mpk) administered by oral gavage and the predose time indicates the number of hours before LPS challenge when the compound is administered.
as §1

The test system of data set [5] is TNF alpha, BALB/c mice injected with LPS. In words: Mouse model of LPS-induced TNF alpha production. Particulars: 30 mpk oral gavage, −6 h before LPS challenge. The data set is classed as in vivo. As for the experimental part: Mouse Model of LPS-induced TNF Alpha Production:
TNF alpha was induced in 10-12 week old BALB/c female mice by tail vein injection with 100 ng lipopolysaccharide (from S. Typhosa) in 0.2 ml saline. One hour later mice were bled from the retroorbital sinus and TNF concentrations in serum from clotted blood were quantified by ELISA.
Efficacy was determined at each time point as percent inhibition of serum TNF levels relative to LPS injected mice that received vehicle only.
In vivo assessment of the ability of the compounds to inhibit LPS-stimulated TNP release in the mouse is shown in the column identified as: • “Mouse LPS Model, % TNF inhib @ dose @ predose time” wherein in the dose is milligram per kilogram (mpk) administered by oral gavage and the predose time indicates the number of hours before LPS challenge when the compound is administered.

The target in another data set is T1, human p38 kinase alpha (Homo sapiens, UniProt Q16539).
T1 construct: GST (N, cleaved yes); made in house; host or cells: E. coli DH10B
T1 sequence (Q16539 whole entry): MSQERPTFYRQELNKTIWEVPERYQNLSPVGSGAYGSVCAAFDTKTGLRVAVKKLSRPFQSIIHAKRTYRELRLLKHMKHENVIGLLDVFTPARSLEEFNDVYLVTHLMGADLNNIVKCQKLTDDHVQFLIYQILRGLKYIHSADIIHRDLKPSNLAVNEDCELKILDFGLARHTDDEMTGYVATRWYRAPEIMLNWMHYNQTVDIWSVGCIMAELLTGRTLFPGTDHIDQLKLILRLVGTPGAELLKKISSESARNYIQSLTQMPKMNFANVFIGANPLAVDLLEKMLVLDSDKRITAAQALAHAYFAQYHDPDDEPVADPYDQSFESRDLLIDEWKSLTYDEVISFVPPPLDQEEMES
In words: p38 kinase in vitro assay, phosphorylation of biotinylated PHAS-I with 32P-ATP. Particulars: for IC50: read-out: P38 alpha kinase IC50; for P38 alpha kinase % inhib @ conc. (uM): @ 1.0 uM. It counts as biochemical.

Setting [6] is: in vitro P38-alpha kinase inhibition.

`Clc1ccc(-c2n[nH]c(SC3CCNCC3)c2-c2ccncc2)cc1` [A-459 (salt)]: the IC50 in data set [1] (Table 10, read-out: TNF Inhibition-Human Whole Blood Assay) was 0.28 µM.
Regarding `Clc1ccc(-c2n[nH]cc2-c2ccncn2)cc1` [Example A-310, 4-[3-(4-chlorophenyl)-1H-pyrazol-4-yl]pyrimidine], the melting point was 218.17 °C.
`Cc1[nH]nc(-c2ccsc2)c1-c1ccncc1` [Example A-49] displayed an IC50 in data set [2] of 6800 nM.
With `O=C(C1CC1)N1CCC(c2[nH]nc(-c3ccc(F)cc3)c2-c2ccncc2)CC1` [Example B-1364], the figures for the IC50 (in data set [3]; on human p38 kinase alpha (in vitro P38-alpha kinase)) were 270 nM and 9 nM, respectively. In addition, the inhibition in vivo at 3 mg/kg in data set [4] (Rattus norvegicus, po) is 17%. In data set [5] (Mus musculus, read-out: Mouse LPS Model % TNF inhib @ dose @ predose time), the inhibition in vivo at 30 mg/kg stood at 53%.
In the case of `CC(=O)N1CCC(c2[nH]nc(-c3ccc(F)cc3)c2-c2ccncc2)CC1` [Example B-1363], in data set [4], the “Rat LPS Model % inhib @ dose @ predose time” value came out at 53% @ 3 mpk @ −4 h. For the same compound, in data set [5], the “Mouse LPS Model % TNF inhib @ dose @ predose time” value is 51.0% @ 30 pmk @. The IC50 on human p38 kinase alpha (in vitro P38-alpha kinase) stood at 9 nM.
On to `O=C(NCCCc1[nH]nc(-c2ccc(F)cc2)c1-c1ccncc1)c1ccc(F)cc1` [Example B-1161], for which the “Rat LPS Model % inhib @ dose @ predose time” value in data set [4] is reported as 45% @ 3 mpk @ −4 h. Moreover, the “Mouse LPS Model % TNF inhib @ dose @ predose time” value in data set [5] came to 40% @ 30 mpk @ −6 h. The “P38 alpha kinase % inhib @ conc. (uM)” value at human p38 kinase alpha is 64.0% 2.
Turning to `Fc1ccc(-c2n[nH]c(N3CCC4(CC3)OCCO4)c2-c2ccncc2)cc1` [Example A-380, 8-[5-(4-fluorophenyl)-4-(4-pyridinyl)-1H-pyrazol-3-yl]-1,4-dioxa-8-azaspiro[4.5]decane], the “TNF Inhibition-Human Whole Blood Assay” value in data set [1] is listed as 32%.
On to `CC(NS(=O)(=O)c1cccc(Cl)c1)c1[nH]nc(-c2ccc(F)cc2)c1-c1ccncc1` (centres unmarked) [Example B-0639], for which the inhibition in vivo at 3 mg/kg in data set [4] (Rattus norvegicus, po) was determined as 50%. Also, the IC50 at human p38 kinase alpha (setting [6]) is 51 nM.
Consider `OC1CCN(c2[nH]nc(-c3ccc(F)cc3)c2-c2ccncc2)CC1` [Example A-379, 1-[5-(4-fluorophenyl)-4-(4-pyridinyl)-1H-pyrazol-3-yl]-4-piperidinol], for which, in data set [1], the “TNF Inhibition-Human Whole Blood Assay” value came to 44%.
As to `Clc1ccc(-c2n[nH]c(SCCOC3CCCCO3)c2-c2ccncc2)cc1` (centres unmarked) [Example A-474], the IC50 in data set [1] (Homo sapiens, Table 10, read-out: TNF Inhibition-Human Whole Blood Assay) amounted to 1.47 µM.
Compound `Clc1ccc(-c2n[nH]c(SCCN3CCCC3)c2-c2ccncc2)cc1` [Example A-460] had a melting point of 189.9 to 190.1 °C.
As for “5-[2-(1,1-DIMETHYL)AMINOETHYL]-4-(4-PYRIDYL)-3-(4-FLUOROPHENYL)PYRAZOLE [Example C-114]”, the IC50 in data set [1] (TNF production, human whole blood stimulated with LPS, read-out: Human Whole Blood IC50, μM or % Inhib @ conc. (μM): IC50) was 1.73 µM.
For `Fc1ccc(-c2n[nH]cc2-c2ccnc(NCCN3CCCCC3)c2)cc1` [Example A-375, 4-[3-(4-fluorophenyl)-1H-pyrazol-4-yl]-N-[2-(1-piperidinyl)ethyl]-2-pyridinamine], the “TNF Inhibition-Human Whole Blood Assay” value in data set [1] was determined as 28%.
As for `CC(NS(=O)(=O)c1ccc(Cl)s1)c1[nH]nc(-c2ccc(F)cc2)c1-c1ccncc1` (centres unmarked) [Example B-0650], the inhibition in vivo at 3 mg/kg in data set [4] (Rattus norvegicus, po) worked out at 8%. The IC50 at human p38 kinase alpha (setting [6]) came out at 6 nM.
In the case of `O=C(NCCCc1[nH]nc(-c2ccc(F)cc2)c1-c1ccncc1)C1CC1` [Example B-1166], the “Rat LPS Model % inhib @ dose @ predose time” value in data set [4] is on record as 50% @ 3 mpk @ −4 h. The “Mouse LPS Model % TNF inhib @ dose @ predose time” value in data set [5] is listed as 50% @ 30 mpk @ −6 h. Moreover, the “P38 alpha kinase % inhib @ conc. (uM)” value at human p38 kinase alpha is 77.0% @.
Compound `CCc1[nH]nc(-c2cccc(C)c2)c1-c1ccncc1` [Example 45] showed an IC50 in data set [2] (PBMC) below 100 nM.
Compound `O=C(C(=C1SCS1)c1ccncc1)c1ccc(OC(F)(F)F)cc1` [Example A-395] registered a melting point of 182.6 to 183 °C.
As for `O=C(c1ccc(F)cc1)N1CCC(c2[nH]nc(-c3ccc(F)cc3)c2-c2ccncc2)CC1` [Example B-1360], in data set [4] (Rattus norvegicus, po), the inhibition in vivo at 3 mg/kg is 54%.
Consider `CC(NC(=O)C(C)(C)C)c1[nH]nc(-c2ccc(F)cc2)c1-c1ccncc1` (centres unmarked) [Example B-0601], for which the inhibition in vivo at 3 mg/kg in data set [4] (Rattus norvegicus, po) amounted to 43%. Also, at human p38 kinase alpha (setting [6]), the IC50 came to 89 nM.
In the case of `Cc1[nH]nc(-c2ccc(Cl)cc2)c1-c1ccncc1` [Example 7, 4-(3-(4-chlorophenyl)-5-methyl-1H-pyrazol-4-yl)pyridine], the IC50 in data set [2] (PBMC) turned out to be 200 nM.
Turning to `Cc1ccc(S(=O)(=O)NC(C)c2[nH]nc(-c3ccc(F)cc3)c2-c2ccncc2)cc1` (centres unmarked) [Example B-0576], the inhibition in vivo at 3 mg/kg in data set [4] (Rattus norvegicus, po) stood at 65%. At human p38 kinase alpha (setting [6]), the IC50 is 68 nM.
With `CCn1nc(C)c(-c2ccncc2)c1-c1ccc(Cl)cc1` [Example A-207, 4-[3-(4-chlorophenyl)-2-ethyl-5-methyl-1H-pyrazol-4-yl]pyridine], the melting point was determined as 153.46 °C.
As for `O=C1CCN(c2[nH]nc(-c3ccc(F)cc3)c2-c2ccncc2)CC1` [Example A-378, 1-[5-(4-fluorophenyl)-4-(4-pyridinyl)-1H-pyrazol-3-yl]-4-piperidinone], the “TNF Inhibition-Human Whole Blood Assay” value in data set [1] is 49%.
As for `O=C(O)C(Cc1cnc[nH]1)Sc1[nH]nc(-c2ccc(Cl)cc2)c1-c1ccncc1` (centres unmarked) [Example A-471], the melting point is 163 to 165 °C.
As for `COc1ccc(-n2nc(-c3ccc(F)cc3)c(-c3ccncc3)c2-c2cnc[nH]2)cc1` [Example A-323, 4-[3-(4-fluorophenyl)-5-(1H-imidazol-4-yl)-1-(4-methoxyphenyl)-1H-pyrazol-4-yl]pyridine], the melting point lay within 124 to 126 °C. For the same compound, the inhibition in vivo at 30 mg/kg in data set [4] (Rattus norvegicus, po, read-out: Rat LPS Assay % Inhibition, Table 8, dose 30.0 mg/kg) is 40%.
In turn, `N#Cc1ccc(C(=O)C(=C2SCS2)c2ccncc2)cc1` [Example A-396] registered a melting point of 193.3 to 193.4 °C.
In the case of `COc1ccc(S(=O)(=O)NC(C)c2[nH]nc(-c3ccc(F)cc3)c2-c2ccncc2)cc1` (centres unmarked) [Example B-0574], the inhibition in vivo at 3 mg/kg in data set [4] (Rattus norvegicus, po) came out at 37%.
